Consider one compound from paper PMC6780063 (Marine Drugs, 2019).

Residues, ends and D or L forms follow the SMILES beside them.

The assay has as its target α1β1γδ nAChR (Homo sapiens, UniProt P02708+P07510+P11230+Q07001). The assay is described as follows: cell-based. Type of assay: cell-based.

Sequence of α1β1γδ nAChR (P02708 21-457 limits assumed): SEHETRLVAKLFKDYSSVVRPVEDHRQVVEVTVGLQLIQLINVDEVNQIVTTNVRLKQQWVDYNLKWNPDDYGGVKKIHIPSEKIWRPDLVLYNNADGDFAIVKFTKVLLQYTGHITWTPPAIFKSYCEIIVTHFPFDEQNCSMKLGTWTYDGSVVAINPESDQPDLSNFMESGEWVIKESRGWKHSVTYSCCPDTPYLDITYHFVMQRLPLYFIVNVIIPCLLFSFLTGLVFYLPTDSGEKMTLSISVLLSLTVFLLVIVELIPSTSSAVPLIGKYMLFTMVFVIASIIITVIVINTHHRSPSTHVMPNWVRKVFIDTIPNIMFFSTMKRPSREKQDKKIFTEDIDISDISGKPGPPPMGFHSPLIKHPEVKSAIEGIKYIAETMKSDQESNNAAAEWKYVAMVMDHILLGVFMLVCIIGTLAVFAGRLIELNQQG
Sequence of α1β1γδ nAChR (P11230 24-501 partner limits assumed): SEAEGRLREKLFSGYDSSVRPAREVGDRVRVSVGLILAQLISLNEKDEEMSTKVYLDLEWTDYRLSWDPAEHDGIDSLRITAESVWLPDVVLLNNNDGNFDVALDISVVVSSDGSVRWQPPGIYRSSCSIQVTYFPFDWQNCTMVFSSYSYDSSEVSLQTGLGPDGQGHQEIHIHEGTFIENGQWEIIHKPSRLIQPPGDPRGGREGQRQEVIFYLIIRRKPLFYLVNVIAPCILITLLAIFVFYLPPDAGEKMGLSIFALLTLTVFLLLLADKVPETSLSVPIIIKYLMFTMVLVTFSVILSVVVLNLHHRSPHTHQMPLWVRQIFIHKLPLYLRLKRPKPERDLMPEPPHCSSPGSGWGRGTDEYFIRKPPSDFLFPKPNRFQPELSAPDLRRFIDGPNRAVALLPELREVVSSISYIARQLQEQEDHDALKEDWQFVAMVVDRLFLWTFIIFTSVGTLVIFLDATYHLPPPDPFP
Sequence of α1β1γδ nAChR (P07510 23-517 limits assumed): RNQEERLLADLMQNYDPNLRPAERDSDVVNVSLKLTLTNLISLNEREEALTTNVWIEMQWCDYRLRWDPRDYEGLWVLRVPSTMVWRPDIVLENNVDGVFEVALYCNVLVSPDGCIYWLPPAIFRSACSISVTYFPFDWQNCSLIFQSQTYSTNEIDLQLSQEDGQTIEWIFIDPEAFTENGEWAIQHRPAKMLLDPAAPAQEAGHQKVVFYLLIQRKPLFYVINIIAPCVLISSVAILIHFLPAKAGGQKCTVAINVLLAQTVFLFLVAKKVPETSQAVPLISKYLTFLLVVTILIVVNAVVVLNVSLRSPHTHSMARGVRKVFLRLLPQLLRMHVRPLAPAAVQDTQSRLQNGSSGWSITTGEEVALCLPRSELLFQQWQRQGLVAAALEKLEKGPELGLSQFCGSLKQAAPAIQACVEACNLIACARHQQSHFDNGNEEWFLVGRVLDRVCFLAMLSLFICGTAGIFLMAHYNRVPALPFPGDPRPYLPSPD
Sequence of α1β1γδ nAChR (Q07001 22-517 limits assumed): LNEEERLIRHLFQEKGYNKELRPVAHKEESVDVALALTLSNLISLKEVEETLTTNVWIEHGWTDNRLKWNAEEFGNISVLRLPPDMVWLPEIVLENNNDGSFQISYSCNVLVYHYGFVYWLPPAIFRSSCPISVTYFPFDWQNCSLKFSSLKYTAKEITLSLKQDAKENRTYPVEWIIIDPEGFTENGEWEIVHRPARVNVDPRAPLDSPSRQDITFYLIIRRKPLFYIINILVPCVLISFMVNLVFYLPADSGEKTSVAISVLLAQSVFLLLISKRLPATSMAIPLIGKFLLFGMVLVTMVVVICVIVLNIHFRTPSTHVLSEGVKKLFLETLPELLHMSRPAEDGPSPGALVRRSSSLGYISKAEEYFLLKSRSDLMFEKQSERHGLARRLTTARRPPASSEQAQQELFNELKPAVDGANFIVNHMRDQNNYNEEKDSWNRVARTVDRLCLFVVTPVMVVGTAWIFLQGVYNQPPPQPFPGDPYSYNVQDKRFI

On to `CSCC[C@@H]1NC(=O)[C@@H]2CSSC[C@H](NC(=O)[C@H](CCSC)NC(=O)[C@@H](N)CC(=O)O)C(=O)N[C@@H](CSSC[C@@H](C(N)=O)NC(=O)[C@H](CC(N)=O)NC(=O)[C@H](Cc3ccccc3)NC(=O)[C@H](Cc3c[nH]cn3)NC(=O)[C@H](CC(N)=O)NC1=O)C(=O)N[C@@H](Cc1c[nH]cn1)C(=O)N1CCC[C@H]1C(=O)N[C@@H](C)C(=O)N2` [MilIA] (HELM PEPTIDE1{D.M.C.C.H.P.A.C.M.N.H.F.N.C.[am]}$PEPTIDE1,PEPTIDE1,3:R3-8:R3|PEPTIDE1,PEPTIDE1,4:R3-14:R3$$$V2.0), for which the “inhibition of the ACh-evoked current amplitude, α1β1γδ” value stood at 20%. In addition, the 50% inhibitory concentration (IC50) (as a rule, the concentration at which inhibition is half-maximal) (SEM) was determined as 13.1 µM.
